Source: paper PMC6321291, “Synthesis, Biological Evaluation and Docking Studies of Benzoxazoles Derived from Thymoquinone” (Molecules, 2018)
Values after ≈ are worked out from the molar mass of the structure shown. Read-outs that look alike come from different tables or passages of the source.

Assays:
[1] = tested on: CFPAC-1 (ductal pancreatic adenocarcinoma); assay: MTT assay, CFPAC-1; format: cell-based; conditions: Homo sapiens, 72 h
Method: (§1) The tested compounds were dissolved in DMSO in five, 10-fold dilutions (0.01–100 µM). The cell lines HeLa (cervical carcinoma), SW620 (colorectal adenocarcinoma, metastatic), HepG2 (hepatocellular carcinoma), CFPAC-1 (ductal pancreatic adenocarcinoma), and WI38 (human lung fibroblast cell line), were cultured as monolayers and maintained in Dulbecco’s modified Eagle medium (DMEM) supplemented with 10% fetal bovine serum (FBS), 2 mM L-glutamine, 100 U mL^−1 penicillin and 100 μg mL^−1 streptomycin in a humidified atmosphere with 5% CO2 at 37 °C.
(§2) The MTT assay was used for evaluation of effects of tested compounds on viability of carcinoma and control cell lines. About 5000 cells per well were seeded onto a series of standard 96-well plates on day 0. Test agents were then added and incubated for further 72 h. Working dilutions of tested compounds were freshly prepared in the growth medium, on the day of testing. The solvent (DMSO) was also tested for eventual inhibitory activity by adjusting its concentration to be the same as in the working concentrations (DMSO concentration never exceeded 0.1%). After 72 h of incubation, the cell growth rate was evaluated by performing the MTT assay: experimentally determined absorbance values were transformed into a cell percentage growth (PG) using the formulas proposed by NIH and described previously. This method directly relies on control cells number at the day of assay because it compares the growth of treated cells with the growth of untreated cells in control wells on the same plate, the results are therefore a percentile difference from the calculated expected value.
(§3) If, however, all of the tested concentrations produce PGs exceeding the respective reference level of effect (e.g., PG value of 50) for a given cell line, the highest tested concentration is assigned as the default value (in the screening data report that default value is preceded by a “>” sign). Each test point was performed in quadruplicate in three individual experiments. The results were statistically analyzed (Analysis of variance (ANOVA), Tukey post-hoc test at p < 0.05). Finally, the effects of the tested substances were evaluated by plotting the mean percentage growth for each cell type in comparison to control on dose response graphs.

[2] = tested on: HepG2 (hepatocellular carcinoma); assay: MTT assay, HepG2; format: cell-based; conditions: Homo sapiens, 72 h
Method: as §1, §2, §3

[3] = MTT assay, WI38 healthy control; format: cell-based; conditions: WI38 human lung fibroblast cells, WI38 healthy control human fibroblast cell line
Method: as §1, §2, §3

[4] = tested on: HeLa (cervical carcinoma); assay: MTT assay, HeLa; format: cell-based; conditions: Homo sapiens, 72 h
Method: as §1, §2, §3

[5] = tested on: SW620 (colorectal adenocarcinoma, metastatic); assay: MTT assay, SW620; format: cell-based; conditions: Homo sapiens, SW-620, 72 h
Method: as §1, §2, §3

[6] = tested on: Pseudomonas aeruginosa ATCC 9027; assay: Micro-dilution MIC assay, P. aeruginosa; format: cell-based; conditions: ATCC9027, 24 h at 37 °C
Method: (§4) Antimicrobial activity of compounds was evaluated in vitro on eight bacterial strains (Escherichia coli ATCC 25922 (ATCC = American Type Culture Collection, Manassas, VA, USA), Pseudomonas aeruginosa ATCC 9027, Proteus hauseri ATCC 13315, Klebsiella pneumoniae ATCC 10031, Staphylococcus aureus ATCC 6538, Bacillus subtilis ATCC 6633, Clostridium sporogenes ATCC 19404 and Micrococcus luteus ATCC 10240) and three fungi (Candida albicans ATCC 10231, Saccharomyces cerevisiae ATCC 9763 and Aspergillus brasiliensis ATCC 16404).
(§5) Micro-dilution assay was used for determination of tested compounds MIC. A serial dilution method in sterile 96-well microtitre plates was performed. Fresh Mueller–Hinton broth (for bacteria) and Sabouraud dextrose broth (for fungi) were used. In sterile physiological solution, suspensions containing 1.5 × 10^8 CFU mL^−1 for bacteria and 1.5 × 10^7 CFU mL^−1 for fungi were made (according to McFarland). One hundred microliters of broth were added to each well of the plate. Stock solutions of tested compounds were made in DMSO at concentration 10 mg mL^−1, and then 100 μL of the compound stock solution was added to each well of the first column. Double dilution was made in whole row for one tested compound, and repeated for all tested compounds in other rows. Amikacin served as positive control for bacteria, while nystatin served as positive control for fungi. The solvent (DMSO) was used as the negative control. Afterwards, each well was inoculated with 10 μL of microorganism suspension. After incubation, 24 h at 37 °C for bacteria and 48 h at 25 °C for fungi, results were read. The lowest concentration where no growth of microorganism was detected represented MIC.

[7] = tested on: Candida albicans ATCC 10231; assay: Micro-dilution MIC assay, C. albicans; format: cell-based
Method: as §4, §5

[8] = tested on: Micrococcus luteus ATCC 10240; assay: Micro-dilution MIC assay, M. luteus; format: cell-based; conditions: ATCC10240, 24 h at 37 °C
Method: as §4, §5

[9] = tested on: Staphylococcus aureus ATCC 6538; assay: Micro-dilution MIC assay, S. aureus; format: cell-based; conditions: ATCC6538, 24 h at 37 °C
Method: as §4, §5

[10] = tested on: Bacillus subtilis ATCC 6633; assay: Micro-dilution MIC assay, B. subtilis; format: cell-based; conditions: ATCC6633, 24 h at 37 °C
Method: as §4, §5

[11] = tested on: Klebsiella pneumoniae ATCC 10031; assay: Micro-dilution MIC assay, K. pneumoniae; format: cell-based; conditions: ATCC10031, 24 h at 37 °C
Method: as §4, §5

[12] = tested on: Saccharomyces cerevisiae ATCC 9763; assay: Micro-dilution MIC assay, S. cerevisiae; format: cell-based
Method: as §4, §5

[13] = tested on: Aspergillus brasiliensis ATCC 16404; assay: Micro-dilution MIC assay, A. brasiliensis; format: cell-based; conditions: A. braziliensis, 48 h at 25 °C
Method: as §4, §5

[14] = tested on: Clostridium sporogenes ATCC 19404; assay: Micro-dilution MIC assay, C. sporogenes; format: cell-based; conditions: ATCC19404, 24 h at 37 °C
Method: as §4, §5

[15] = tested on: Proteus hauseri ATCC 13315; assay: Micro-dilution MIC assay, P. hauseri; format: cell-based; conditions: ATCC13315, 24 h at 37 °C
Method: as §4, §5

[16] = tested on: Escherichia coli ATCC 25922; assay: Micro-dilution MIC assay, E. coli; format: cell-based; conditions: ATCC25922, 24 h at 37 °C
Method: as §4, §5

[17] = Candida albicans, ATCC10231, 48 h at 25 °C, read-out: MIC
[18] = Saccharomyces cerevisiae, ATCC9763, 48 h at 25 °C, read-out: MIC
[19] = Aspergillus brasiliensis, ATCC16404, read-out: MIC

Compound	IC50 [1] [µM]	IC50 [2] [µM]	melting point [°C]	IC50 at 72 h [3] [µM]	IC50 [4] [µM]	IC50 [5] [µM]	MIC [6] [µM]	MIC [7, 17] [µM]	MIC [8] [µM]	MIC [9] [µM]	MIC [10] [µM]	MIC [11] [µM]	MIC [12, 18] [µM]	MIC [13, 19] [µM]	MIC [14] [µM]	MIC [15] [µM]	MIC [16] [µM]	MIC ([7]; 48 h at 25 °C) [µM]	MIC ([12]; 48 h at 25 °C) [µM]	MIC [13] [µM]
Cc1c(O)cc(C(C)C)c2oc(-c3ccccc3)nc12 [1a, 4-Methyl-2-phenyl-7-isopropyl-1,3-benzoxazole-5-ol]	90.2	39.3	164	19.9	32.2	> 100	–	–	–	–	–	–	–	–	–	–	–	–	–	–
Cc1c(O)cc(C(C)C)c2oc(-c3ccccc3O)nc12 [1b, 2-(2-Hydroxyphenyl)-4-methyl-7-isopropyl-1,3-benzoxazole-5-ol]	31	32.3	172	29.8	25	43.7	–	–	–	–	–	–	–	–	–	–	–	–	–	–
Cc1c(O)cc(C(C)C)c2oc(-c3ccc(Br)cc3)nc12 [1d, 2-(4-Bromophenyl)-4-methyl-7-isopropyl-1,3-benzoxazole-5-ol]	34.5	30.5	190	57.6	30.1	51.5	–	–	–	–	–	–	–	–	–	–	–	–	–	–
Cc1c(O)cc(C(C)C)c2oc(-c3ccc([N+](=O)[O-])cc3)nc12 [1g, 4-Methyl-2-(4-nitrophenyl)-7-isopropyl-1,3-benzoxazole-5-ol]	> 100	> 100	188	6.21	> 100	54.9	–	–	–	–	–	–	–	–	–	–	–	–	–	–
COc1ccc(-c2nc3c(C)c(O)cc(C(C)C)c3o2)cc1 [1h, 2-(4-Methoxyphenyl)-4-methyl-7-isopropyl-1,3-benzoxazole-5-ol]	97	> 100	178	75.9	> 100	> 100	–	–	–	–	–	–	–	–	–	–	–	–	–	–
COc1cc(-c2nc3c(C)c(O)cc(C(C)C)c3o2)ccc1O [1i, 2-(4-Hydroxy-3-methoxyphenyl)-4-methyl-7-isopropyl-1,3-benzoxazole-5-ol]	40.6	4.58	168	9.32	6.38	55.3	–	–	–	–	–	–	–	–	–	–	–	–	–	–
Cc1c(O)cc(C(C)C)c2oc(-c3cccs3)nc12 [1j, 4-Methyl-7-isopropyl-2-(thiophene-2-yl)-1,3-benzoxazole-5-ol]	27	7.28	152	9.97	10.3	31.6	–	–	–	–	–	–	–	–	–	–	–	–	–	–
CC1=C(N)C(=O)C(C(C)C)=CC1=O [ATQ, 3-Aminothymoquinone]	30.9	8.26	–	9.41	15.7	25.8	218 (≈ 39 µg/mL)	1750 (≈ 314 µg/mL)	59.7 (≈ 10.7 µg/mL)	112 (≈ 20 µg/mL)	218 (≈ 39 µg/mL)	435 (≈ 78 µg/mL)	220 (≈ 39.4 µg/mL)	880 (≈ 158 µg/mL)	435 (≈ 78 µg/mL)	218 (≈ 39 µg/mL)	112 (≈ 20 µg/mL)	–	–	–
NCC[C@H](O)C(=O)N[C@@H]1C[C@H](N)[C@@H](O[C@H]2O[C@H](CN)[C@@H](O)[C@H](O)[C@H]2O)[C@H](O)[C@H]1O[C@H]1O[C@H](CO)[C@@H](O)[C@H](N)[C@H]1O [Amikacin, amikacin]	–	–	–	–	–	–	85.4 (≈ 50 µg/mL)	–	3.42 (≈ 2 µg/mL)	18.8 (≈ 11 µg/mL)	71.7 (≈ 42 µg/mL)	13.7 (≈ 8.03 µg/mL)	–	–	25.6 (≈ 15 µg/mL)	11.9 (≈ 7 µg/mL)	8.54 (≈ 5 µg/mL)	–	–	–
C[C@@H]1[C@H](O)[C@@H](C)/C=C/C=C/CC/C=C/C=C/C=C/C=C/C(O[C@H]2O[C@H](C)[C@@H](O)[C@H](N)[C@@H]2O)CC2O[C@](O)(CC(O)C(O)CCC(O)CC(O)CC(O)CC(=O)O[C@H]1C)CC(O)C2C(=O)O (stereo partly shown) [Nystatin, nystatin]	–	–	–	–	–	–	–	–	–	–	–	–	–	–	–	–	–	2700 (≈ 2500 µg/mL)	1350 (≈ 1250 µg/mL)	1350 (≈ 1250 µg/mL)
CC1=CC(=O)C(C(C)C)=CC1=O [TQ, Thymoquinone]	48.3	24	–	19.8	28.9	40	59.7 (≈ 9.8 µg/mL)	3810 (≈ 626 µg/mL)	59.7 (≈ 9.8 µg/mL)	29.8 (≈ 4.9 µg/mL)	59.7 (≈ 9.8 µg/mL)	59.7 (≈ 9.8 µg/mL)	1900 (≈ 312 µg/mL)	3810 (≈ 626 µg/mL)	122 (≈ 20 µg/mL)	29.8 (≈ 4.9 µg/mL)	29.8 (≈ 4.9 µg/mL)	–	–	–
